According to publication PMC11345841, “Exploring 2-Sulfonylpyrimidine Warheads as Acrylamide Surrogates for Targeted Covalent Inhibition: A BTK Story” (Journal of Medicinal Chemistry, 2024):
Substitutions are numbered along the chain they refer to. Read-outs that look alike come from different tables or passages of the source.

How the values were obtained:
[1] = target: T1, FLT1 (Homo sapiens, UniProt P17948); test: KINOMEscan ScanTK; assay type: binding
T1 construct: purchased Eurofins DiscoverX KINOMEscan (scanTK)
T1 sequence (P17948 27-1338): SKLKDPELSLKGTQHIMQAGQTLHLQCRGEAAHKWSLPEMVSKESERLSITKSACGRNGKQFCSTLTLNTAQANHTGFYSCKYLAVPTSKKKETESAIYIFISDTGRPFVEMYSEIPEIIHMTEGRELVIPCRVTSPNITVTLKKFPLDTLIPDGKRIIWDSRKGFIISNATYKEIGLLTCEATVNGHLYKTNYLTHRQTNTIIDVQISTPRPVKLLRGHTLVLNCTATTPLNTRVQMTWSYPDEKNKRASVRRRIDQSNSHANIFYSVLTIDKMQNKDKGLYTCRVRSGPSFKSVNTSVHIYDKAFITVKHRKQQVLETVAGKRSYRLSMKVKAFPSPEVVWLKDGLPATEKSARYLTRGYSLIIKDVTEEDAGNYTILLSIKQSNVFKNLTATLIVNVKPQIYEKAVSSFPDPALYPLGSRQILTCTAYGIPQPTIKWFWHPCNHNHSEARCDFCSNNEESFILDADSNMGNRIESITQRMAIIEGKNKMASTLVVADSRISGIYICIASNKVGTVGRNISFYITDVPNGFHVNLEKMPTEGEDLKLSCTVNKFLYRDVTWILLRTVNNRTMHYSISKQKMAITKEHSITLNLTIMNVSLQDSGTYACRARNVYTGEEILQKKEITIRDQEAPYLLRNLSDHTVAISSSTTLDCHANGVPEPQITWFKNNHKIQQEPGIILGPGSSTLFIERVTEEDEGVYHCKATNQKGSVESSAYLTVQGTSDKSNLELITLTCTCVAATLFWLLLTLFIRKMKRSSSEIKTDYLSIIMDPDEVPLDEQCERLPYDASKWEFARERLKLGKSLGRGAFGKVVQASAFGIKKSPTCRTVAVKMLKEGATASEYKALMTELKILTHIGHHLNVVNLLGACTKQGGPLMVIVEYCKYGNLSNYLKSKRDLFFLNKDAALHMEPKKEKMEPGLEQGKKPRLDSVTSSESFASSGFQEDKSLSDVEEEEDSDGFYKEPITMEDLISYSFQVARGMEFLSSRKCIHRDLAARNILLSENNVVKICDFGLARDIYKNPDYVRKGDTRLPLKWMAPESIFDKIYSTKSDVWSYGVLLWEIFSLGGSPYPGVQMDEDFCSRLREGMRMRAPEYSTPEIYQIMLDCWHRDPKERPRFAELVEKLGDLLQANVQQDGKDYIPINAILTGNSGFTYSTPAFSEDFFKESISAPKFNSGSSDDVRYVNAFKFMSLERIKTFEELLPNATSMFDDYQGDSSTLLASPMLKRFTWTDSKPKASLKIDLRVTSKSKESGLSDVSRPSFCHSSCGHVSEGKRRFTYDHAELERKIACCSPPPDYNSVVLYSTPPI

[2] = target: T2, FLT3(R834Q) (Homo sapiens, UniProt P36888, R834Q); test: KINOMEscan ScanTK; assay type: binding
T2 construct: purchased Eurofins DiscoverX KINOMEscan (scanTK)
T2 sequence (P36888 27-993 R834Q): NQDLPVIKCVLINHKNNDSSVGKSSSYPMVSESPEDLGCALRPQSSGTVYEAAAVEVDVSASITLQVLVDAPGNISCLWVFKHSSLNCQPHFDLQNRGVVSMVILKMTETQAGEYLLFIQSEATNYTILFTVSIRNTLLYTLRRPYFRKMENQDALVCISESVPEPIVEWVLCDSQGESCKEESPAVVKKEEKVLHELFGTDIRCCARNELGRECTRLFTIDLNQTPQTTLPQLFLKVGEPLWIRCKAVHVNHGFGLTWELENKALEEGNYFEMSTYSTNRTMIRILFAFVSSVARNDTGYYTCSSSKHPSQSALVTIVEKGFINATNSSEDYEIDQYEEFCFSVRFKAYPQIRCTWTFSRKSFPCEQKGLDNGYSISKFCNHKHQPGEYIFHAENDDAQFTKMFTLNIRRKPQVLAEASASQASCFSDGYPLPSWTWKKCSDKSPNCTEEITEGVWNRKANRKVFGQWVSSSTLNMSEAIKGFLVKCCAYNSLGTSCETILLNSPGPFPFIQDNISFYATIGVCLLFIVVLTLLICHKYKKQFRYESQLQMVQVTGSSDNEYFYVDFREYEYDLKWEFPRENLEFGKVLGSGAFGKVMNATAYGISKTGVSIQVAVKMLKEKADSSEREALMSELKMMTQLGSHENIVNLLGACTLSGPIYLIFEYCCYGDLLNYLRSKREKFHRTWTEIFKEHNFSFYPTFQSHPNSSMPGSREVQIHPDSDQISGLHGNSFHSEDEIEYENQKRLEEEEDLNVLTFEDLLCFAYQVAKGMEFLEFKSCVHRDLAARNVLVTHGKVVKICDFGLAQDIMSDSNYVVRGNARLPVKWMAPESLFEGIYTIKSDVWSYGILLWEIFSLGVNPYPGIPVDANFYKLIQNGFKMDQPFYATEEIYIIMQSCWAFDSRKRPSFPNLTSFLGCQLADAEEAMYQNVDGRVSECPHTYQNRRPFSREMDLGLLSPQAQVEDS

[3] = target: T3, EPHA4 (Homo sapiens, UniProt P54764); test: KINOMEscan ScanTK; assay type: binding
T3 construct: purchased Eurofins DiscoverX KINOMEscan (scanTK)
T3 sequence (P54764 20-986): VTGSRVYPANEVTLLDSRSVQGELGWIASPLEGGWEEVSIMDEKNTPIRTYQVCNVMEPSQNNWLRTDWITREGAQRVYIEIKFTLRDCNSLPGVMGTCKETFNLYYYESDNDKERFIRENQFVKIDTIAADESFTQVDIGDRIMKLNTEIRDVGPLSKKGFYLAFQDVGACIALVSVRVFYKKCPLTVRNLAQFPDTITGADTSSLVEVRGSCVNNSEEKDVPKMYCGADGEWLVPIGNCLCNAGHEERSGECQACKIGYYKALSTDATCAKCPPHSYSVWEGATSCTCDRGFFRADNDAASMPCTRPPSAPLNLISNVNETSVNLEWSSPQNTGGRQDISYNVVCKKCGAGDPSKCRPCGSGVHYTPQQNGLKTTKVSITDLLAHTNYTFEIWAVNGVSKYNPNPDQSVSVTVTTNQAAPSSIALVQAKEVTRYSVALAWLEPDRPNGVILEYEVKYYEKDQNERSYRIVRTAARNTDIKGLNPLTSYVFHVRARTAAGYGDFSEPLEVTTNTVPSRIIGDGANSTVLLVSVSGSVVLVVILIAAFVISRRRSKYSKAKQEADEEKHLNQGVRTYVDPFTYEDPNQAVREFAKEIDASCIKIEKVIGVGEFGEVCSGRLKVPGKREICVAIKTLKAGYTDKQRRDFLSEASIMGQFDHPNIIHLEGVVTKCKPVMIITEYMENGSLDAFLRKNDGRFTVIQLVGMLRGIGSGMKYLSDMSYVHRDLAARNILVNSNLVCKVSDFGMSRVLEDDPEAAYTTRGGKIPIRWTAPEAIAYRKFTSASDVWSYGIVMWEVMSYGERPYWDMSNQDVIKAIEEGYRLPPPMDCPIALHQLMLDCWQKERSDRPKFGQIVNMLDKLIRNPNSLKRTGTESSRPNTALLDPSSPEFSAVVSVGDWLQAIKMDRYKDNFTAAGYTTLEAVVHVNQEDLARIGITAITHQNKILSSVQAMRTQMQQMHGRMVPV

[4] = tested on: TMD8 cells; test: RNA-seq gene expression; conditions: TMD8, 1 μM, 8 h; for number of genes reduced vs DMSO: FDR < 0.01, log2FC < -0.5; for number of genes increased vs DMSO: FDR < 0.01, log2FC > 0.5
[5] = target: T4, FRK (Homo sapiens, UniProt P42685); test: KINOMEscan ScanTK; assay type: binding
T4 construct: purchased Eurofins DiscoverX KINOMEscan (scanTK)
T4 sequence (P42685 whole entry): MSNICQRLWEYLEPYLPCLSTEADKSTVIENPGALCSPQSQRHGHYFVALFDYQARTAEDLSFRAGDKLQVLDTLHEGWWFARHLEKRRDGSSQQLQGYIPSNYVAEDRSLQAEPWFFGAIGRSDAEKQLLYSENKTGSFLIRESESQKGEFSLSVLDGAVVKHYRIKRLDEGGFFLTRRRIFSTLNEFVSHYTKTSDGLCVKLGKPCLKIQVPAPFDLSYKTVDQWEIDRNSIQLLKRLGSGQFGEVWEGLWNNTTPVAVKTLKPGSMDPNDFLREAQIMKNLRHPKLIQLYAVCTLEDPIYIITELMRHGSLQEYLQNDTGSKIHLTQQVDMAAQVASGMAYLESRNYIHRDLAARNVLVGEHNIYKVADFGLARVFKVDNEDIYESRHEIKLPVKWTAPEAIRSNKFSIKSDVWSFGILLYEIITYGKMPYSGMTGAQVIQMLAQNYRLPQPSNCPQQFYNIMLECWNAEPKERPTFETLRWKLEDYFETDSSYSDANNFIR

[6] = target: T5, HCK (Homo sapiens, UniProt P08631); test: KINOMEscan ScanTK; assay type: binding
T5 construct: purchased Eurofins DiscoverX KINOMEscan (scanTK)
T5 sequence (P08631 whole entry): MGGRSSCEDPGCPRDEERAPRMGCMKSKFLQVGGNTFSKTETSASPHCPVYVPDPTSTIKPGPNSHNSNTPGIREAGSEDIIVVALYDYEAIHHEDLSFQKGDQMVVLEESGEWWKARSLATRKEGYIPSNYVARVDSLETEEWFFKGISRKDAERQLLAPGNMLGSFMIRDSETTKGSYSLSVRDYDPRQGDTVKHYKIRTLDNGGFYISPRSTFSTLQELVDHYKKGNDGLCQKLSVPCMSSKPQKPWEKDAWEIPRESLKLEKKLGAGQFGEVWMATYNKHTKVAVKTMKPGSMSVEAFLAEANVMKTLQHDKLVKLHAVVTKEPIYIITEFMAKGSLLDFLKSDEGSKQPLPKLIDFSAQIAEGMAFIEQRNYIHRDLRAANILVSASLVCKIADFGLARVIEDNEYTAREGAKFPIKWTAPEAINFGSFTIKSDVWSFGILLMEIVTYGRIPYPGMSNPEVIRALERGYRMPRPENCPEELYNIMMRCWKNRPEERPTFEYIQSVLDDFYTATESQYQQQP

[7] = target: T6, FLT3(D835Y) (Homo sapiens, UniProt P36888, D835Y); test: KINOMEscan ScanTK; assay type: binding
T6 construct: purchased Eurofins DiscoverX KINOMEscan (scanTK)
T6 sequence (P36888 27-993 D835Y): T2 sequence (P36888 27-993 R834Q) with Q808R, D809Y

[8] = target: T7, EGFR(T790M) (Homo sapiens, UniProt P00533, T790M); test: KINOMEscan ScanTK; assay type: binding
T7 construct: purchased Eurofins DiscoverX KINOMEscan (scanTK)
T7 sequence (P00533 25-1210 T790M): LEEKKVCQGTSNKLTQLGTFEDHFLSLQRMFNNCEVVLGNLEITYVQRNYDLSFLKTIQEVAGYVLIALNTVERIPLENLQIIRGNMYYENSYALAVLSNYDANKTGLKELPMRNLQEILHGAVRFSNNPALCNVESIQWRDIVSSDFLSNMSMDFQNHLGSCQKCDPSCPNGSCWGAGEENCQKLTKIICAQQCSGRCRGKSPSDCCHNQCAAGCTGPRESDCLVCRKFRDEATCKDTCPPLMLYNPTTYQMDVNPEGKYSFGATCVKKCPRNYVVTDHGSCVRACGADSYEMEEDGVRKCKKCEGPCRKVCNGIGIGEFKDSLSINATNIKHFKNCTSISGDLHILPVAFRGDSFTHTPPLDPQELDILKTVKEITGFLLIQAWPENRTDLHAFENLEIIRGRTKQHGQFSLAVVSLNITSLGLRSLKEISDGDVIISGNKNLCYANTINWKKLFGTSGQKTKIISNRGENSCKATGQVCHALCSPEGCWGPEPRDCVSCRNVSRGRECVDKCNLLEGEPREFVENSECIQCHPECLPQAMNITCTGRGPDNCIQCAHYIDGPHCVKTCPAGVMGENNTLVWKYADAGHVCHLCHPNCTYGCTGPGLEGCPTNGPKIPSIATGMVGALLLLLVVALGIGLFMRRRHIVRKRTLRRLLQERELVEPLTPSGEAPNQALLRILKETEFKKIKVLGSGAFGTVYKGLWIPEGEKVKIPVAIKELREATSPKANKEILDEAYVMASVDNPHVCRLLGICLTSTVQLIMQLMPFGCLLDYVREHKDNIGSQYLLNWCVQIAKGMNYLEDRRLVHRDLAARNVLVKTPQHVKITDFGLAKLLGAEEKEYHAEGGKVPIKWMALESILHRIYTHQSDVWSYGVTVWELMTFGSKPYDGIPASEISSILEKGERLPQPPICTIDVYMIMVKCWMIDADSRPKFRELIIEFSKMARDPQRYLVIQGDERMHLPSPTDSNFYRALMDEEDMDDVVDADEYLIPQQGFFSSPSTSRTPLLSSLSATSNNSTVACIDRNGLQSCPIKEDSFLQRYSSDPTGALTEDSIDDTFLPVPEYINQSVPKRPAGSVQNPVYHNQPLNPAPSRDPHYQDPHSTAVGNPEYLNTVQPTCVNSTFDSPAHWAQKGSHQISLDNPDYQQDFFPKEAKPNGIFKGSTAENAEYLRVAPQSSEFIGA

[9] = target: T8, EGFR(S752-I759del) (Homo sapiens, UniProt P00533, DEL752-759); test: KINOMEscan ScanTK; assay type: binding
T8 construct: purchased Eurofins DiscoverX KINOMEscan (scanTK)
T8 sequence (P00533 with tags, fused parts or gaps DEL752-759 limits assumed): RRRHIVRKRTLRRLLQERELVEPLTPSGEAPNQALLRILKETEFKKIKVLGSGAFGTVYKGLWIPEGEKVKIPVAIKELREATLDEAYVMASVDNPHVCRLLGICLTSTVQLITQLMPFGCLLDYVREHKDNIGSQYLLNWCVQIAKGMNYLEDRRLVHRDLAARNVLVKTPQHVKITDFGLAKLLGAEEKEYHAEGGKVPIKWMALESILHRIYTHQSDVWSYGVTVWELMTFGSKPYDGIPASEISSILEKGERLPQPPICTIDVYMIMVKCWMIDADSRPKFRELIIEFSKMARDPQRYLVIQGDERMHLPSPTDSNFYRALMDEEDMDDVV

Row | SMILES | remaining binding at 1 µM ([1]; @1000nM, read-out: %Control) [%] | remaining binding at 1 µM ([1]; read-out: %Control @1000nM) [%] | remaining binding at 1 µM ([2]; @1000nM, read-out: %Control) [%] | remaining binding at 1 µM ([2]; read-out: %Control @1000nM) [%] | remaining binding at 1 µM ([3]; @1000nM, read-out: %Control) [%] | remaining binding at 1 µM ([3]; read-out: %Control @1000nM) [%] | number of genes unchanged vs DMSO [4] [genes] | number of genes reduced vs DMSO [4] [genes] | number of genes increased vs DMSO [4] [genes] | remaining binding at 1 µM ([5]; @1000nM, read-out: %Control) [%] | remaining binding at 1 µM ([5]; read-out: %Control @1000nM) [%] | remaining binding at 1 µM ([6]; @1000nM, read-out: %Control) [%] | remaining binding at 1 µM ([6]; read-out: %Control @1000nM) [%] | difference in %Control from compound Ib at 1 µM ([1]; @1000nM) [%] | difference in %Control versus compound Ib at 1 µM ([7]; @1000nM) [%] | remaining binding at 1 µM ([7]; @1000nM, read-out: %Control) [%] | remaining binding at 1 µM ([7]; read-out: %Control @1000nM) [%] | difference in %Control versus compound Ib at 1 µM ([2]; @1000nM) [%] | %Control difference from compound Ib at 1 µM ([3]; @1000nM) [%] | difference in %Control versus compound Ib at 1 µM ([5]; @1000nM) [%] | other results
1 | C=CC(=O)N1CCC[C@@H](n2nc(-c3ccc(Oc4ccccc4)cc3)c3c(N)ncnc32)C1 [Compound 1g, Ibrutinib, reference compound] | 72 | 72 | 61 | 61 | 91 | 91 | 14846 | 125 | 76 | 9.3 | 9.3 | 5.2 | 5.2 | – | – | – | – | – | – | – | –
2 | Cc1cnc(S(C)(=O)=O)nc1N1CCCC(n2nc(-c3ccc(Oc4ccccc4)cc3)c3c(N)ncnc32)C1 (stereo not shown) [Compound 8a, 1-(1-(5-Methyl-2-(methylsulfonyl)pyrimidin-4-yl)piperidin-3-yl)-3-(4-phenoxyphenyl)-1H-pyrazolo[3,4-d]pyrimidin-4-amine] | 93 | 93 | 70 | 70 | 100 | 100 | 14761 | 189 | 97 | 48 | 48 | 6.5 | 6.5 | 21 | -4 | 45 | 45 | 9 | 9 | 38.7 | difference in % of control versus compound Ib at 1 µM ([8]; @1000nM): 69.5%; remaining binding at 1 µM ([8]; @1000nM, read-out: %Control): 70%; remaining binding at 1 µM ([8]; read-out: %Control @1000nM): 70%; difference in %Control versus compound Ib at 1 µM ([9]; @1000nM): 98%; remaining binding at 1 µM ([9]; @1000nM, read-out: %Control): 100%; remaining binding at 1 µM ([9]; read-out: %Control @1000nM): 100%; difference in %Control from compound Ib at 1 µM ([6]; @1000nM): 1.3%
3 | COC(=O)c1cnc(S(C)(=O)=O)nc1N1CCCC(n2nc(-c3ccc(Oc4ccccc4)cc3)c3c(N)ncnc32)C1 (stereo not shown) [Compound 8b, Methyl 4-(3-(4-Amino-3-(4-phenoxyphenyl)-1H-pyrazolo[3,4-d]pyrimidin-1-yl)piperidin-1-yl)-2-(methylsulfonyl)pyrimidine-5-carboxylate] | 98 | 98 | 83 | 83 | 98 | 98 | 15031 | 15 | 1 | 79 | 79 | 16 | 16 | 26 | 18 | 67 | 67 | 22 | 7 | 69.7 | difference in % of control versus compound Ib at 1 µM ([8]; @1000nM): 41.5%; remaining binding at 1 µM ([8]; @1000nM, read-out: %Control): 42%; remaining binding at 1 µM ([8]; read-out: %Control @1000nM): 42%; difference in %Control versus compound Ib at 1 µM ([9]; @1000nM): 80%; remaining binding at 1 µM ([9]; @1000nM, read-out: %Control): 82%; remaining binding at 1 µM ([9]; read-out: %Control @1000nM): 82%; difference in %Control from compound Ib at 1 µM ([6]; @1000nM): 10.8%
4 | CCOC(=O)c1cnc(S(C)(=O)=O)nc1N1CCC[C@@H](n2nc(-c3ccc(Oc4ccccc4)cc3)c3c(N)ncnc32)C1 [Compound 8c, Ethyl (R)-4-(3-(4-Amino-3-(4-phenoxyphenyl)-1H-pyrazolo[3,4-d]pyrimidin-1-yl)piperidin-1-yl)-2-(methylsulfonyl)pyrimidine-5-carboxylate] | 100 | 100 | 99 | 99 | 100 | 100 | 15047 | 0 | 0 | 76 | 76 | 28 | 28 | 28 | 50 | 99 | 99 | 38 | 9 | 66.7 | difference in % of control versus compound Ib at 1 µM ([8]; @1000nM): 72.5%; remaining binding at 1 µM ([8]; @1000nM, read-out: %Control): 73%; remaining binding at 1 µM ([8]; read-out: %Control @1000nM): 73%; difference in %Control versus compound Ib at 1 µM ([9]; @1000nM): 98%; remaining binding at 1 µM ([9]; @1000nM, read-out: %Control): 100%; remaining binding at 1 µM ([9]; read-out: %Control @1000nM): 100%; difference in %Control from compound Ib at 1 µM ([6]; @1000nM): 22.8%
